Laboratory results from US20040248775A1, “Methods for screening inhibitors of apoptosis” (Wyeth, priority 2003, published 2004).

Molecular target: T1, wild-type NALP1 (Homo sapiens, UniProt Q9C000)
T1 construct: to generate full-length NALP1 in frame with EGFP; expressed in transfected cells; host or cells: HeLa cells, transient transfection with the pEGFP-N3 based plasmid; S-100 extract used
T1 sequence (Q9C000 1-1473): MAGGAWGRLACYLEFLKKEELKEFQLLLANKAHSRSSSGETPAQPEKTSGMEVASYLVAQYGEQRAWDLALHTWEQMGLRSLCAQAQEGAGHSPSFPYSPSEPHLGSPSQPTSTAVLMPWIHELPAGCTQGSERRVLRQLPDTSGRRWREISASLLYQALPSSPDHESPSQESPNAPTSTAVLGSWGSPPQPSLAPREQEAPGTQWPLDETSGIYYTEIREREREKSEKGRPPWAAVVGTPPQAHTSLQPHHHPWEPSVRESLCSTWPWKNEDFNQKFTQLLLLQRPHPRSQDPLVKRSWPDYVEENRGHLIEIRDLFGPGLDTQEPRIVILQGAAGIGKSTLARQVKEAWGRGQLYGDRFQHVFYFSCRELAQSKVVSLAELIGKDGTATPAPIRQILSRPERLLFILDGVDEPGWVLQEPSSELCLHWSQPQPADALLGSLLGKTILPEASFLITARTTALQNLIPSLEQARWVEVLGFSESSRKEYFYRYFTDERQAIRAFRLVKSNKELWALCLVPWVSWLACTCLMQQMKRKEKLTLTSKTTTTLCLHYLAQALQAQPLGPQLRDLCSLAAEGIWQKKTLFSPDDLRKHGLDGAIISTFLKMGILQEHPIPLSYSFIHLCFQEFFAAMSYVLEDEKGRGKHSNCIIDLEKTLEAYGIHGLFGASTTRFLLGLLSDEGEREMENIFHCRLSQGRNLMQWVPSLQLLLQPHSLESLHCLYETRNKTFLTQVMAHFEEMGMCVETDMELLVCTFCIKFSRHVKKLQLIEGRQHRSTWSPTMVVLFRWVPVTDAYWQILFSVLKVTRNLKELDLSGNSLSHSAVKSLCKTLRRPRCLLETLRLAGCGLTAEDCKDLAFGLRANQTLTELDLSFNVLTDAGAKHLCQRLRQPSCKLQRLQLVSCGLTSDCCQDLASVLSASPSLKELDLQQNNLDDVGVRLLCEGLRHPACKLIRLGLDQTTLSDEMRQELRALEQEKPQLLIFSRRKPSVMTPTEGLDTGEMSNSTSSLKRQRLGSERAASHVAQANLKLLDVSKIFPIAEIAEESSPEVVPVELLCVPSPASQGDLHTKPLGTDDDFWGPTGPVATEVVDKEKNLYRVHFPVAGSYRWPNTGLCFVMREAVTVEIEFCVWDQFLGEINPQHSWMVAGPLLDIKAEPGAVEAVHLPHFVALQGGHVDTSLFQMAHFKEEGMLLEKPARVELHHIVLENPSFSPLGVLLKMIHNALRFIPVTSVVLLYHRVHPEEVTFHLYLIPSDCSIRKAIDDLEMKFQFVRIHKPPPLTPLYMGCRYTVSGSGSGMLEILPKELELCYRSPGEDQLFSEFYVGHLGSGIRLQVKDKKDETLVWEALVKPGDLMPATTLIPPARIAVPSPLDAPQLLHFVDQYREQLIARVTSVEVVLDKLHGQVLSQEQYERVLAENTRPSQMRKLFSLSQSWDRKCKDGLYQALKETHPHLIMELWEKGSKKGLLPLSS
Assay: Fluorimetric DEVDase (caspase-3) assay in HeLa cell extracts expressing wild-type NALP1-EGFP
Format: biochemical
Conditions: 2 mM dATP, 2 mM MgCl2, 1 hour, Ac-DEVD-AMC substrate
Experimental: Cell extract preparation and fluorimetric assay of caspase activity. Preparation of cell extracts, dATP incubation and caspase-3 activities assays were performed as described by Liu et al. (1996). Briefly, HeLa cells were grown in DMEM, 10% FBS. Cells were plated in T175 flasks to 60% confluence. Control vector pEGFP or wild-type or NBS mutant NALP1-EGFP expression plasmids were transfected into HeLa cells using Lipofectamine Plus. Cells were collected in homogenization buffer (20 mM HEPES pH 7.5, 10 mM KCl, 1 mM sodium EDTA, […], 1 mM sodium EGTA, 0.1% CHAPS, 1 mM DTT, 0.1 mM PMSF and protease inhibitor cocktail tablets (Roche)), 24 hours after transfection. Cells were chilled on ice for 15 minutes and homogenized by douncing 30 times in a glass douncer. Samples were centrifuged at 1000×g for 10 minutes at 4° C. […] After 2 hours incubation, liberation of AMC (7-amino-4-methylcoumarin) from the substrate was monitored using excitation/emission wavelength pairs (λex/λem) of 380/460 nm using a SpectraFluor Plus instrument (Tecan). Triplicate samples were evaluated with or without specific inhibitors. […] Normalized data from multiple experiments were expressed as means±standard deviation. For each experiment, the expression of EGFP-tagged NALP1 proteins was analyzed by anti-GFP immunoblot and quantified by densitometry.

SMILES: Nc1ncnc2c1ncn2[C@H]1C[C@H](O)[C@@H](COP(=O)(O)OP(=O)(O)OP(=O)(O)O)O1 [dATP]
- DEVDase activity, extracts with wild-type NALP1: significantly elevated
